According to patent publication US20170152263A1, “Substituted Indazole Compounds as IRAK4 Inhibitors” (AURIGENE DISCOVERY TECHNOLOGIES LIMITED, priority 2014, published 2017):
Counter-ions that a name gives are not always drawn.

Molecular target: T1, recombinant IRAK-4 kinase (Homo sapiens, UniProt Q9NWZ3)
T1 construct: purchased Millipore, USA
T1 sequence (Q9NWZ3 1-460): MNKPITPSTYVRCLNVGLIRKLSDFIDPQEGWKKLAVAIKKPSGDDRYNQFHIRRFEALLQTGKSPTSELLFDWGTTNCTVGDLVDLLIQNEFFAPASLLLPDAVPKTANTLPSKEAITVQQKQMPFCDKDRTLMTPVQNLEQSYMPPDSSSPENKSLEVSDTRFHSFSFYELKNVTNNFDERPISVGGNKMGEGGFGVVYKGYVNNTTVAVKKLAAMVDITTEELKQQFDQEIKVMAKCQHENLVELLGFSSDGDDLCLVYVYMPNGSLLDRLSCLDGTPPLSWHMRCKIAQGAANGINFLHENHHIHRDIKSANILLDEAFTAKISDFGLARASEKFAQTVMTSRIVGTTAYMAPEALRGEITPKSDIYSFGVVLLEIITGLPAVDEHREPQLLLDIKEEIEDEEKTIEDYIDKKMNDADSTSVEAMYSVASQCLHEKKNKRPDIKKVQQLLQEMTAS
Assay: IRAK-4 biochemical assay (TR-FRET)
Settings: IRAK-4 enzyme, 20 μM ATP; for inhibition at 0.1 µM: compound at 0.1 μM; for inhibition at 1 µM: compound at 1 μM; for IC50: dose response
Description: Compounds were tested for their potential to inhibit IRAK-4 enzyme in a TR-FRET assay using recombinant IRAK-4 kinase from Millipore, USA. The assay buffer was 50 mM Tris-HCl pH 7.5, 20 mM MgCl2, 1 mM EGTA, 2 mM DTT, 3 mM MnCl2 and 0.01% Tween 20.5 ng of IRAK-4 kinase was used for the assay. After pre-incubation of enzyme with test compound for 30 minutes at room temperature, a substrate mixture containing 100 nM Biotin Histone H3 (Millipore, USA) and 20 μM ATP (Sigma, USA) was added and the reaction was incubated for 30 min. Post incubation, the reaction was stopped by the addition of stop mix containing 40 mM EDTA, 1 nM of Europium-Anti-Phospho-Histone H3 (Ser10) antibody (Perkin Elmer, USA) and 20 nM SureLight Allophycocyanin-Streptavidin (Perkin Elmer, USA). The fluorescence emission at 615 nm and 665 nm were measured at an excitation of 340 nm and the percent inhibition was estimated from the ratio of the fluorescence intensities [(F665/F615)×10000]. […] The IC50 values were estimated by fitting the dose-response data to sigmoidal dose response (variable slope), curve fitting program using Graphpad Prism software Version 6.01.

Row | inhibition at 0.1 µM [%] | inhibition at 1 µM [%] | IC50 [nM] | Compound
1 | 81 | 95 | < 100 | Cn1ncc2cc(N3CC[C@H](O)C3)c(NC(=O)c3coc(-c4cccnc4N)n3)cc21 [Example 23, (S)-2-(2-aminopyridin-3-yl)—N—(5-(3-hydroxypyrrolidin-1-yl)-1-methyl-1H-indazol-6-yl)oxazole-4-carboxamide]
2 | – | 96 | < 100 | Cc1cc(-c2nc(C(=O)Nc3cc4c(cnn4C)cc3N3CCCCC3)co2)ccn1 [Example 1, N-(1-methyl-5-(piperidin-1-yl)-1H-indazol-6-yl)-2-(2-methylpyridin-4-yl)oxazole-4-carboxamide hydrochloride]
3 | 94 | 97 | < 100 | Cc1cc(-c2nc(C(=O)Nc3cc4c(cnn4C)cc3N3CCC(F)CC3)co2)ccn1 [Example 19, N—(5-(4-fluoropiperidin-1-yl)-1-methyl-1H-indazol-6-yl)-2-(2-methylpyridin-4-yl)oxazole-4-carboxamide]
4 | 25 | 87 | 100 to 250 | Cc1cc(-c2nc(C(=O)Nc3cc4c(cnn4C4CC4)cc3N3CC[C@H](O)C3)co2)ccn1 [Example 33, (S)—N—(1-cyclopropyl-5-(3-hydroxypyrrolidin-1-yl)-1H-indazol-6-yl)-2-(2-methylpyridin-4-yl)oxazole-4-carboxamide hydrochloride]
5 | 94 | 99 | < 100 | Cc1cc(-c2nc(C(=O)Nc3cc4c(cnn4C)cc3N3CCCC(F)C3)co2)ccn1 (stereo not drawn) [Example 16, N—(5-(3-fluoropiperidin-1-yl)-1-methyl-1H-indazol-6-yl)-2-(2-methylpyridin-4-yl)oxazole-4-carboxamide]
6 | 90 | 56 | > 250 | Cn1ncc2cc(N3CCCCC3)c(NC(=O)c3cccc(N4CC[C@H](N)C4)n3)cc21 [Example 8, (S)-6-(3-aminopyrrolidin-1-yl)—N—(1-methyl-5-(piperidin-1-yl)-1H-indazol-6-yl)picolinamide]
7 | 96 | 92 | < 100 | Cn1ncc2cc(N3CC[C@H](O)C3)c(NC(=O)c3coc(-c4ccnc5[nH]ccc45)n3)cc21 [Example 26, (S)—N—(5-(3-hydroxypyrrolidin-1-yl)-1-methyl-1H-indazol-6-yl)-2-(1H-pyrrolo[2,3-b]pyridin-4-yl)oxazole-4-carboxamide]
8 | 0 | 0 | – | Cn1ncc2cc(N3CC[C@H](O)C3)c(NC(=O)c3coc(C4CCNCC4)n3)cc21 [Example 37, (S)—N—(5-(3-hydroxypyrrolidin-1-yl)-1-methyl-1H-indazol-6-yl)-2-(piperidin-4-yl)oxazole-4-carboxamide hydrochloride]
9 | 95 | 98 | < 100 | Cc1cc(-c2nc(C(=O)Nc3cc4c(cnn4C)cc3N3CCC(O)(CO)CC3)co2)ccn1 [Example 40, N-(5-(4-hydroxy-4-(hydroxymethyl)piperidin-1-yl)-1-methyl-1H-indazol-6-yl)-2-(2-methylpyridin-4-yl)oxazole-4-carboxamide]
10 | – | 84 | 100 to 250 | Cn1ncc2cc(N3CCCCC3)c(NC(=O)c3coc(N4CC[C@H](N)C4)n3)cc21 [Example 4, (S)-2-(3-aminopyrrolidin-1-yl)—N—(1-methyl-5-(piperidin-1-yl)-1H-indazol-6-yl)oxazole-4-carboxamide]
11 | 88 | 97 | > 250 | Cc1cc(-c2nc(C(=O)Nc3cc4[nH]ncc4cc3N3CC[C@H](O)C3)co2)ccn1 [Example 27, (S)—N—(5-(3-hydroxypyrrolidin-1-yl)-1H-indazol-6-yl)-2-(2-methylpyridin-4-yl)oxazole-4-carboxamide]
12 | 93 | 95 | < 100 | Cc1cc(-c2nc(C(=O)Nc3cc4c(cnn4C)cc3N3CCC(O)CC3)co2)ccn1 [Example 17, N—(5-(4-hydroxypiperidin-1-yl)-1-methyl-1H-indazol-6-yl)-2-(2-methylpyridin-4-yl)oxazole-4-carboxamide]
13 | 2 | 12 | – | Cc1cc(-c2nc(C(=O)Nc3cc4c(cc3N3CCC(CO)CC3)c(C)nn4C)co2)ccn1 [Example 45, N—(5-(4-(hydroxymethyl)piperidin-1-yl)-1,3-dimethyl-1H-indazol-6-yl)-2-(2-methylpyridin-4-yl)oxazole-4-carboxamide hydrochloride]
14 | 83 | 78 | > 250 | Cn1ncc2cc(N3CCCCC3)c(NC(=O)c3cccc(N4CC[C@H](O)C4)n3)cc21 [Example 9, (S)-6-(3-hydroxypyrrolidin-1-yl)—N—(1-methyl-5-(piperidin-1-yl)-1H-indazol-6-yl)picolinamide]
15 | 83 | 99 | < 100 | CC(=O)Nc1cc(-c2nc(C(=O)Nc3cc4c(cnn4C)cc3N3CC[C@H](O)C3)co2)ccn1 [Example 15]
16 | 33 | 80 | 100 to 250 | Cn1ncc2cc(N3CC[C@@H](O)C3)c(NC(=O)c3cccc(N4CC[C@H](O)C4)n3)cc21 [Example 24, 6-((S)-3-hydroxypyrrolidin-1-yl)—N—(5-((R)-3-hydroxypyrrolidin-1-yl)-1-methyl-1H-indazol-6-yl)picolinamide]
17 | 95 | 91 | < 100 | Cn1ncc2cc(N3CCCCC3)c(NC(=O)c3coc(N4CC[C@H](O)C4)n3)cc21 [Example 10, (S)-2-(3-hydroxypyrrolidin-1-yl)—N—(1-methyl-5-(piperidin-1-yl)-1H-indazol-6-yl)oxazole-4-carboxamide]
18 | 0 | 20 | – | CN1CCN(c2nc(C(=O)Nc3cc4c(cnn4C)cc3N3CC[C@H](O)C3)co2)CC1 [Example 30, (S)—N—(5-(3-hydroxypyrrolidin-1-yl)-1-methyl-1H-indazol-6-yl)-2-(4-methylpiperazin-1-yl)oxazole-4-carboxamide hydrochloride]
19 | 25 | 80 | > 250 | Cn1ncc2cc(N3CC[C@H](O)C3)c(NC(=O)c3cnn4cccnc34)cc21 [Example 48, (S)—N—(5-(3-hydroxypyrrolidin-1-yl)-1-methyl-1H-indazol-6-yl)pyrazolo[1,5-a]pyrimidine-3-carboxamide hydrochloride]
20 | 94 | – | < 100 | Cc1cc(-c2nc(C(=O)Nc3cc4c(cnn4C)cc3N3CCCC(O)C3)co2)ccn1 (stereo not drawn) [Example 12, N—(5-(3-hydroxypiperidin-1-yl)-1-methyl-1H-indazol-6-yl)-2-(2-methylpyridin-4-yl)oxazole-4-carboxamide hydrochloride]
21 | 14 | 95 | < 100 | Cn1ncc2cc(N3CC[C@@H](O)C3)c(NC(=O)c3coc(-c4cccnc4N)n3)cc21 [Example 29, (R)-2-(2-aminopyridin-3-yl)—N—(5-(3-hydroxypyrrolidin-1-yl)-1-methyl-1H-indazol-6-yl)oxazole-4-carboxamide hydrochloride]
